In patent US12089595B2, “Pseudomonas strains and their metabolites to control plant diseases” (T3 Bioscience, Inc., priority 2020, dated 2024):
In brackets after ≈: the same amount, converted by molar mass. Like-named read-outs stand apart in the source and are kept apart here.

Tests used:
[1] = tested on: Xanthomonas arboricola pv. Juglandis 219; test: MIC antimicrobial assay (CLSI, 96 well plates); type: cell-based
[2] = tested on: Xanthomonas campestris pv. Pruni; test: MIC antimicrobial assay (CLSI, 96 well plates); type: cell-based; conditions: Xanthomonas campestris pv. Pruni (Bacterial Spot of Peach)
[3] = tested on: Pseudomonas syringae pv. tomato PT30; test: MIC antimicrobial assay (CLSI, 96 well plates); type: cell-based; conditions: Pseudomonas syringae pv. tomato PT30 (Tomato bacterial speck)
R. solanacearum K60 = test: microbe, parasite or virus in culture; type: cell-based; conditions: Ralstonia solanacearum, K60, read-out: Diameter of the zone of inhibition
R. solanacearum Pss = test: microbe, parasite or virus in culture; type: cell-based; conditions: Ralstonia solanacearum, read-out: Diameter of the zone of inhibition
[4] = tested on: Erwinia amylovora 898 (streptomycin-resistant); test: microbe, parasite or virus in culture; type: cell-based
[5] = tested on: Pectobacterium carotovorum subsp. brasiliensis 944; test: MIC antimicrobial assay (CLSI, 96 well plates); type: cell-based; conditions: Pectobacterium carotovorum subsp. brasiliensis 944 (soft rot)
E. amylovora 110 = test: Greenhouse blossom blight assay on crabapples trees (RejuAgro A); type: in vivo, Erwinia amylovora
Description: To evaluate the biological control activity of RejuAgro A against Erwinia amylovora, greenhouse infection assay on crabapples trees was conducted at the University of Wisconsin-Milwaukee. Ten μg/mL was supplemented with 1% Polyethylene glycol (PEG) 4000 or 1% PEG4000 (negative control) were applied on full bloom trees flowers 3 hours prior to the inoculation and 24 hours post-inoculation. Approximately 10^8 CFU/mL of E. amylovora 110 strain resuspended in water was used as inoculum. The infection rate was calculated at around day 6 post inoculation. RejuAgro A can effectively suppress the blossom blight (Table 6).

E coli O157:H7 = test: MIC antimicrobial assay (CLSI, 96 well plates); type: cell-based
[6] = tested on: Clavibacter michiganensis subsp. michiganensis NCPPB382; test: MIC antimicrobial assay (CLSI, 96 well plates); type: cell-based
[7] = tested on: Pseudomonas soli 0617-T307; test: MIC antimicrobial assay (CLSI, 96 well plates)
[8] = tested on: Clavibacter michiganensis subsp. michiganensis Cmm 0690; test: MIC antimicrobial assay (CLSI, 96 well plates); type: cell-based
Erwinia amylovora 110 = test: microbe, parasite or virus in culture; type: cell-based
[9] = tested on: Clavibacter michiganensis subsp. michiganensis Cmm 0317; test: MIC antimicrobial assay (CLSI, 96 well plates); type: cell-based
Dickeya dadantii 3937 = test: MIC antimicrobial assay (CLSI, 96 well plates); type: cell-based; conditions: Dickeya dadantii 3937 (soft rot)
[10] = tested on: Pectobacterium atrosepticum 942; test: MIC antimicrobial assay (CLSI, 96 well plates); type: cell-based; conditions: Pectobacterium atrosepticum 942 (soft rot)
[11] = tested on: X. arboricola pv. Juglandis Xaj219; test: microbe, parasite or virus in culture; type: cell-based, Xanthomonas arboricola pv. Juglandis; conditions: Xanthomonas arboricola, read-out: Diameter of the zone of inhibition
[12] = tested on: Erwinia amylovora DM1 (streptomycin-resistant); test: microbe, parasite or virus in culture; type: cell-based
[13] = tested on: Flavobacterium columnare MS-FC-4; test: MIC antimicrobial assay (CLSI, 96 well plates); type: cell-based; conditions: MSFC4; Flavobacterium columnare MS-FC-4 (Fish columnaris disease), SHIEH
[14] = tested on: Pseudomonas syringae pv. lachrymans 1188-1; test: MIC antimicrobial assay (CLSI, 96 well plates); type: cell-based; conditions: Pseudomonas syringae pv. lachrymans 1188-1 (Angular Leaf Spot of Cucurbits)
[15] = tested on: Xanthomonas axonopodis pv. citri-Miami XC2002-00010; test: MIC antimicrobial assay (CLSI, 96 well plates); type: cell-based
[16] = tested on: Pectobacterium carotovorum subsp. carotovorum wpp14 945; test: MIC antimicrobial assay (CLSI, 96 well plates); type: cell-based; conditions: Pectobacterium carotovorum subsp. carotovorum wpp14 945 (soft rot)
[17] = tested on: Pectobacterium parmentieri UPP163 936; test: MIC antimicrobial assay (CLSI, 96 well plates); type: cell-based; conditions: UPP163936; Pectobacterium parmentieri UPP163 936 (soft rot)
[18] = tested on: P. syringae (pv. tomato PT30, pv syringae 7046, pv. lachrymans 1188-1); test: MIC antimicrobial assay; conditions: Pseudomonas syringae
[19] = tested on: Pseudomonas savastanoi pv. savastanoi; test: MIC antimicrobial assay (CLSI, 96 well plates); type: cell-based
E. amylovora = test: Plate diffusion assay in LB plates; type: cell-based, Erwinia amylovora; conditions: 2 mg/mL; for zone of inhibition at 2000 µg/mL: Erwinia amylovora, read-out: Diameter of the Inhibitory zone
Source text: Two assays were used for the antimicrobial test of 0617-T307 cell broth and metabolites. One is plate diffusion assay and the other one is microplate assay. LB plate was used for the plate diffusion assay of the antimicrobial activity of RejuAgro A containing fractions and cell broths against E. amylovora (Table 3).

[20] = tested on: Xanthomonas campestris pv. vesicatoria XV-16; test: MIC antimicrobial assay (CLSI, 96 well plates); type: cell-based; conditions: Xanthomonas campestris pv. vesicatoria XV-16 (Tomato bacterial spot)
Erwinia amylovora 1189 = test: MIC antimicrobial assay (CLSI, 96 well plates); type: cell-based
[21] = tested on: Methicillin-resistant staphylococcus aureus USA300; test: microbe, parasite or virus in culture; type: cell-based
[22] = tested on: Flavobacterium columnare #2; test: MIC antimicrobial assay (CLSI, 96 well plates); type: cell-based; conditions: Flavobacterium columnare #2 (Fish columnaris disease), TYES
[23] = tested on: X. arboricola pv. Juglandis Xaj417; test: microbe, parasite or virus in culture; type: cell-based, Xanthomonas arboricola pv. Juglandis; conditions: Xanthomonas arboricola, read-out: Diameter of the zone of inhibition
[24] = tested on: Erwinia amylovora CA11 (streptomycin-resistant); test: microbe, parasite or virus in culture; type: cell-based
[25] = tested on: Xanthomonas axonopodis pv. citri N40-SO5; test: MIC antimicrobial assay (CLSI, 96 well plates); type: cell-based
[26] = Staphylococcus aureus, MRSA / USA300

| Structure (SMILES) | MIC ([2]; read-out: MIC) [µg/mL] | MIC [3] [µg/mL] | MIC ([4]; Erwinia amylovora) [µg/mL] | MIC [5] [µg/mL] | MIC (E coli O157:H7) [µg/mL] | MIC [6] [µg/mL] | MIC ([7]; Pseudomonas soli, 0617T307) [µg/mL] | MIC [8] [µg/mL] | MIC (Erwinia amylovora 110) [µg/mL] | MIC [9] [µg/mL] | MIC (Dickeya dadantii 3937) [µg/mL] | MIC [10] [µg/mL] | MIC ([12]; Erwinia amylovora) [µg/mL] | MIC [13] [µg/mL] | MIC [14] [µg/mL] | MIC [15] [µg/mL] | MIC [16] [µg/mL] | MIC [17] [µg/mL] | MIC [18] [µg/mL] | zone of inhibition at 2000 µg/mL (E. amylovora) [mm] | further results |
| --- | --- | --- | --- | --- | --- | --- | --- | --- | --- | --- | --- | --- | --- | --- | --- | --- | --- | --- | --- | --- | --- |
| CSC1=C(C)C(=O)C(=O)NC1=O [RejuAgro A] | 40 (≈ 216 µM) | 40 (≈ 216 µM) | 10 (≈ 54 µM) | 40 (≈ 216 µM) | 40 (≈ 216 µM) | 6.25 (≈ 33.7 µM) | > 40 | 12.5 (≈ 67.5 µM) | 5 (≈ 27 µM) | 1.56 (≈ 8.42 µM) | 40 (≈ 216 µM) | 20 (≈ 108 µM) | 10 (≈ 54 µM) | 5 (≈ 27 µM) | 10 (≈ 54 µM) | 5 (≈ 27 µM) | 40 (≈ 216 µM) | 40 (≈ 216 µM) | 40 (≈ 216 µM) | 11 | MIC ([1]; Xanthomonas arboricola): 6.25 µg/mL (≈ 33.7 µM); zone of inhibition at 2000 µg/mL (R. solanacearum K60): 4 mm; zone of inhibition at 2000 µg/mL (R. solanacearum Pss): 5 mm; Infection rate (E. amylovora 110; 10 μg/mL with 1% PEG4000, 3 hours prior and 24 hours post-inoculation, around day 6, negative control 50.8%): 12.3%; MIC ([7]; Pseudomonas soli 0617-T307 (RejuAgro A producer), LB media): >40 µg/mL; zone of inhibition at 2000 µg/mL [11]: 5 mm; MIC ([19]; Pseudomonas savastanoi): 40 µg/mL (≈ 216 µM); Diameter of the Inhibitory zone (E. amylovora): showed the antimicrobial activity; MIC [20]: 2.5 µg/mL (≈ 13.5 µM); MIC (Erwinia amylovora 1189; Erwinia amylovora, 1189, Erwinia amylovora 1189 (Fire blight on apples/pears)): 5 µg/mL (≈ 27 µM); MIC ([21]; MRSA USA300 (Skin infection, sepsis)): >40 µg/mL; MIC [21, 26]: > 40 µg/mL; MIC [22]: 5 µg/mL (≈ 27 µM); zone of inhibition at 2000 µg/mL [23]: 10 mm; MIC ([24]; Erwinia amylovora): 10 µg/mL (≈ 54 µM); MIC [25]: 5 µg/mL (≈ 27 µM) |
| [H]/N=C(/N)N[C@H]1[C@H](O)[C@@H](O)[C@H](O[C@@H]2O[C@@H](C)[C@](O)(C=O)[C@H]2O[C@@H]2O[C@@H](CO)[C@H](O)[C@@H](O)[C@@H]2NC)[C@@H](N/C(N)=N\[H])[C@@H]1O [Streptomycin, reference compound] | > 40 | 2.5 (≈ 4.3 µM) | > 40 | 40 (≈ 68.8 µM) | 20 (≈ 34.4 µM) | 12.5 (≈ 21.5 µM) | > 40 | 12.5 (≈ 21.5 µM) | 5 (≈ 8.6 µM) | 3.12 (≈ 5.36 µM) | 20 (≈ 34.4 µM) | 20 (≈ 34.4 µM) | > 40 | 1.25 (≈ 2.15 µM) | 5 (≈ 8.6 µM) | 0.16 (≈ 0.275 µM) | 40 (≈ 68.8 µM) | 40 (≈ 68.8 µM) | 2.5 to 5 (≈ 4.3 to 8.6 µM) | 24 | MIC ([1]; Xanthomonas arboricola pv. Juglandis 219 (walnut blight), read-out: MIC): 0.39 µg/mL (≈ 0.671 µM); MIC [2]: >40 µg/mL; zone of inhibition at 100 µg/mL (R. solanacearum K60): 15 mm; zone of inhibition at 100 µg/mL (R. solanacearum Pss): 15 mm; MIC ([4]; Erwinia amylovora 898, spontaneous streptomycin-resistant): >40 µg/mL; Infection rate (E. amylovora 110; 200 μg/mL, around day 6 post inoculation): 5.7%; zone of inhibition at 100 µg/mL [11]: 13 mm; MIC ([12]; Erwinia amylovora DM1, streptomycin-resistant): >40 µg/mL; MIC ([19]; Pseudomonas savastanoi pv. savastanoi (Olive knot), read-out: MIC): 0.31 µg/mL (≈ 0.533 µM); MIC [20]: 20 µg/mL (≈ 34.4 µM); MIC (Erwinia amylovora 1189; Erwinia amylovora 1189 (Fire blight on apples/pears)): 20 µg/mL (≈ 34.4 µM); MIC (Erwinia amylovora 1189; Erwinia amylovora, 1189, Erwinia amylovora 1189 (Fire blight on apples/pears), read-out: MIC): 10 µg/mL (≈ 17.2 µM); MIC [21, 26]: 10 µg/mL (≈ 17.2 µM); MIC [22]: 0.31 µg/mL (≈ 0.533 µM); zone of inhibition at 100 µg/mL [23]: 19 mm; MIC ([24]; Erwinia amylovora): > 40 µg/mL; MIC ([24]; Erwinia amylovora CA11, streptomycin-resistant): >40 µg/mL; MIC [25]: 0.16 µg/mL (≈ 0.275 µM) |
